Assay: Log P by HPLC on reversed phase columns (EEC directive 79/831 Annex V.A8)
Assay type: physicochemical
Summary of the method: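 Reversed-phase HPLC per EEC 79/831 Annex V.A8, LC-UV with 10→95% acetonitrile linear gradient; eluent [a] 0.1% formic acid (acidic), [b] 0.001 M ammonium acetate (neutral), [c] 0.1% phosphoric acid (acidic). Calibrated with C3–C16 straight-chain alkan-2-ones, linear interpolation of retention times; multiple values joined by "+".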

[1] = LogP method [a], compounds of formula (I), Table 1.1
[2] = method [a]: LC-UV, acidic range, 0.1% formic acid in water and acetonitrile
[3] = method [a], compounds of formula (I), Table 1.1
[4] = method marker [a] given with each value, Table 1.1, compounds of formula (I)

CCOC(=O)C1(NC(=O)c2sc(Br)c(Cl)c2F)CC1 [1.0426]
LogP [1]: 3.09^[a]

O=C(NC1CCNC1=O)c1cc(Cl)c(Br)s1 (stereo not shown) [I.0218]
LogP [2]: 1.71^[a]

CCCOC(=O)C1(NC(=O)c2sc(Br)c(Cl)c2C)CC1 [1.0704]
LogP (method marked [a]): 3.62^[a]

CCOC(=O)C(NC(=O)c1sc(Br)c(C#N)c1Cl)C(C)C (stereo not shown) [1.0694]
LogP (method marked [a]): 3.83^[a]

CCOC(=O)C(CC(C)C)NC(=O)c1sc(Br)c(I)c1C (stereo not shown) [1.0093]
LogP [3]: 4.66^[a]

COC(=O)C(CCSC)NC(=O)c1sc(C#N)c(Cl)c1C (stereo not shown) [1.0836]
LogP (method [a]): 3.03^[a]

CCOC(=O)CCNC(=O)c1cc(Br)c(Cl)s1 [1.0453]
LogP [1]: 2.80^[a]

COC(=O)c1sc(Cl)c(Cl)c1C(F)F [II.023]
LogP [2]: 3.77^[a]

CCOC(=O)C(NC(=O)c1sc(Cl)c(Cl)c1Br)C1CC1 (stereo not shown) [1.0524]
LogP [1]: 4.35^[a]

O=C(NC1(C(=O)O)CC1)c1cc(I)c(I)s1 [1.0469]
LogP [1]: 2.08^[a]

CCOC(=O)C1(NC(=O)c2sc(Cl)c(C#N)c2Cl)CC1 [1.0394]
LogP (method marked [a]): 2.69^[a]

N#Cc1cc(C(=O)O)sc1Br [II.100]
LogP [2]: 1.48^[a]

O=C(O)c1sc(Br)c(Cl)c1Cl [II.010]
LogP [2]: 2.51^[a]

O=C(NC1(C(=O)O)COC1)c1sc(Br)c(Br)c1F [1.0489]
LogP [1]: 1.98^[a]

CCSC(=O)C1(NC(=O)c2sc(Br)c(Br)c2I)CC1 [I.0139, S-ethyl 1-{[(4,5-dibromo-3-iodo-2-thienyl)carbonyl]amino}cyclopropanecarbothioate]
chromatographic logP (reversed phase HPLC columns, value in preparation example, method not marked): 3.96

O=C(CNC(=O)c1sc(Br)c(Br)c1Cl)SCc1ccccc1 [1.0997]
LogP [4]: 4.62^[a]

O=C(CNC(=O)c1sc(Br)c(Br)c1F)OC1CCCC1 [1.0862]
LogP (method [a]): 3.84^[a]

CCOC(=O)C(CC(C)C)NC(=O)c1sc(Cl)c(Cl)c1C#N (stereo not shown) [1.0279]
LogP (method marked [a]): 4.05^[a]

COC(=O)C(NC(=O)c1sc(Br)c(Cl)c1Cl)C1CC1 (stereo not shown) [1.0198]
LogP (method [a]): 3.87^[a]

CCOC(=O)CNC(=O)c1sc(Cl)c(Cl)c1C#N [1.0236]
LogP (method [a]): 2.52^[a]

CCOC(=O)C(NC(=O)c1sc(Br)c(Br)c1C(F)(F)F)C(C)C (stereo not shown) [1.0373]
LogP (method marked [a]): 4.09^[a]

COC(=O)CNC(=O)c1sc(Cl)c(Br)c1C#N [1.0584]
LogP (method [a]): 2.20^[a]

Cc1c(C(=O)NC(C#N)C(C)C)sc(Cl)c1Br (stereo not shown) [1.0108]
LogP [3]: 3.63^[a]

CCOC(=O)C(NC(=O)c1sc(Cl)c(Cl)c1F)C(C)C (stereo not shown) [1.0348]
LogP (method marked [a]): 4.37^[a]

CCOC(=O)C(NC(=O)c1sc(Cl)c(Br)c1C)C(C)C (stereo not shown) [1.0067]
LogP [3]: 4.30^[a]

NC(=O)CC(NC(=O)c1sc(Br)c(Br)c1F)C(=O)O (stereo not shown) [1.0256]
LogP (method [a]): 1.66^[a]

COC(=O)C(CC(F)F)NC(=O)c1sc(Br)c(Br)c1I (stereo not shown) [1.0083]
LogP [3]: 3.60^[a]

CCOC(=O)C1(NC(=O)c2sc(Cl)c(Cl)c2C#N)CCC1 [1.0687]
LogP (method marked [a]): 3.16^[a]

COC(=O)C1(NC(=O)c2sc(C#N)c(Br)c2C)CC1 [1.0243]
LogP (method [a]): 2.26^[a]

N#CCNC(=O)c1sc(Cl)c(Br)c1Cl [1.0176]
LogP (method [a]): 2.70^[a]

CCOC(=O)C(C)(C)NC(=O)c1sc(Cl)c(Cl)c1C(F)F [1.0746]
LogP (method marked [a]): 3.55^[a]

O=C(NC1CCOC1=O)c1sc(Cl)c(Cl)c1Br (stereo not shown) [I.0839]
LogP [2]: 2.63^[a]

COC(=O)C1(NC(=O)c2sc(Cl)c(Br)c2C#N)CC1 [1.0600]
LogP (method [a]): 2.36^[a]

COC(=O)[C@H](CSC(=O)N(C)C)NC(=O)c1sc(Cl)c(Cl)c1Br [1.0529]
LogP [1]: 3.58^[a]

COC(=O)C(NC(=O)c1cc(Br)c(C(F)(F)F)s1)C1CC1 (stereo not shown) [1.0720]
LogP (method marked [a]): 3.41^[a]

CCOC(=O)C(Cc1ccccc1)NC(=O)c1sc(F)c(Cl)c1C (stereo not shown) [1.0301]
LogP (method marked [a]): 4.15^[a]

CCOC(=O)C1(NC(=O)c2cc(Br)c(C(F)(F)F)s2)CC1 [1.0726]
LogP (method marked [a]): 3.22^[a]

NC(=O)CNC(=O)c1sc(Br)c(Br)c1Cl [1.0638]
LogP (method [a]): 1.98^[a]

COC(=O)C(NC(=O)c1sc(Br)c(C#N)c1Cl)C1CC1 (stereo not shown) [1.0676]
LogP (method marked [a]): 2.99^[a]

CCOC(=O)C1(NC(=O)c2sc(Br)c(Cl)c2C)CSC1 [1.1063]
LogP [4]: 3.62^[a]

N#CCNC(=O)c1sc(F)c(Br)c1Br [1.0714]
LogP (method marked [a]): 2.39^[a]

CCOC(=O)C(Cc1ccccc1)NC(=O)c1sc(I)c(Br)c1C (stereo not shown) [1.0104]
LogP [3]: 4.46^[a]

CCOC(=O)C1(NC(=O)c2sc(Br)c(Br)c2F)CCCC1 [1.0446]
LogP [1]: 4.21^[a]

COC(=O)C1(NC(=O)c2sc(Br)c(Br)c2F)COC1 [1.0541]
LogP (method [a]): 2.49^[a]

CCOC(=O)C(CC(F)(F)F)NC(=O)c1sc(Cl)c(Br)c1C (stereo not shown) [1.0038]
LogP [3]: 3.99^[a]

N#Cc1sc(C(=O)O)c(Cl)c1Cl [II.088]
LogP [2]: 1.51^[a]

COC(=O)C(C)(C)NC(=O)c1sc(Br)c(C(F)F)c1Br [1.0627]
LogP (method [a]): 3.22^[a]

CCOC(=O)C(CCSC)NC(=O)c1sc(Br)c(I)c1C (stereo not shown) [1.0094]
LogP [3]: 4.03^[a]

CNC(=S)C1(NC(=O)c2sc(Br)c(Br)c2F)CC1 [1.0976]
LogP [4]: 2.82^[a]

CCOC(=O)C1(NC(=O)c2sc(Cl)c(C#N)c2Br)CCC1 [1.0662]
LogP (method marked [a]): 3.28^[a]

COC(=O)C(NC(=S)c1sc(Br)c(Br)c1F)C1CC1 (stereo not shown) [1.0496]
LogP [1]: 4.62^[a]

O=C(CNC(=O)c1sc(Br)c(Br)c1Cl)Oc1ccccc1 [1.0989]
LogP [4]: 3.93^[a]

CCOC(=O)C(NC(=O)c1sc(C#N)c(Cl)c1C)C(=O)OCC [1.0771]
LogP (method marked [a]): 3.20^[a]

Cc1c(C(=O)NCC(N)=O)sc(C#N)c1Cl [1.0914]
LogP (method [a]): 1.34^[a]

N#Cc1sc(C(=O)NC2(C(=O)OC3CCC3)CC2)c(Cl)c1Br [1.0568]
LogP (method [a]): 3.32^[a]

COC(=O)[C@H](CCCNC(=N)N)NC(=O)c1sc(Cl)c(Br)c1C [1.0127]
LogP [3]: 1,66^[a]

CC(NC(=O)c1sc(Br)c(Br)c1F)C(=O)O (stereo not shown) [1.0233]
LogP (method [a]): 2.28^[a]

COC(=O)C1(NC(=O)c2sc(Br)c(Cl)c2C)CSC1 [1.0042]
LogP [3]: 3.25^[a]

N#CC1(NC(=O)c2sc(Br)c(Br)c2Cl)CCC(C2CCCCC2)CC1 (stereo not shown) [I.0869]
LogP [2]: 6.46^[a]

CSC(=O)C1(NC(=O)c2cc(I)c(I)s2)CC1 [1.0477]
LogP [1]: 3.04^[a]

O=C(NC1CCSC1=O)c1sc(Br)c(Br)c1Cl (stereo not shown) [I.1005]
LogP [2]: 3.25^[a]

O=C(O)c1sc(F)c(Br)c1Cl [II.076]
LogP [2]: 2.19^[a]

Cc1sc(C(=O)O)c(Cl)c1Cl [II.065]
LogP [2]: 2.49^[a]

CCCOC(=O)C1(NC(=O)c2sc(Br)c(C(F)F)c2Br)CC1 [1.0507]
LogP [1]: 3.42^[a]

O=C(NC1(C(=O)OCc2ccccc2)CCC1)c1sc(Br)c(Br)c1F [1.0927]
LogP (method [a]): 4.59^[a]

COC(=O)[C@H](CC(=O)OC(C)(C)C)NC(=O)c1sc(Br)c(Br)c1F [1.0560]
LogP (method [a]): 4.12^[a]

COC(=O)CNC(=O)c1sc(C#N)c(Br)c1Cl [1.0605]
LogP (method [a]): 2.24^[a]

CCOC(=O)C(CCSC)NC(=O)c1sc(C#N)c(Br)c1Br (stereo not shown) [1.0732]
LogP (method marked [a]): 3.81^[a]

CCSC(=O)C1(NC(=O)c2sc(Cl)c(Br)c2C)CC1 [1.0253]
LogP (method [a]): 3.77^[a]

O=C(N[C@H]1CCSC1=O)c1sc(Br)c(Br)c1Cl [I.0867]
LogP [2]: 3.24^[a]

O=C(CNC(=O)c1sc(Br)c(Br)c1Cl)OC1CC1 [1.0960]
LogP [4]: 3.39^[a]

CCOC(=O)C1(NC(=O)c2cc(Br)c(F)s2)CC1 [1.0312]
LogP (method marked [a]): 2.57^[a]

COC(=O)C(NC(=O)c1sc(Cl)c(Br)c1Cl)C1CC1 (stereo not shown) [1.0181]
LogP (method [a]): 3.91^[a]

COC(=O)C(NC(=O)c1sc(Cl)c(Br)c1C)(C1CC1)C1CC1 [1.0269]
LogP (method [a]): 3.98^[a]

COC(=O)C(CC(F)F)NC(=O)c1sc(Br)c(I)c1C (stereo not shown) [1.0092]
LogP [3]: 3.39^[a]

CCOC(=O)C(NC(=O)c1sc(Cl)c(Br)c1C)C1CC1 (stereo not shown) [1.0266]
LogP (method [a]): 3.81^[a]

CCOC(=O)C(NC(=O)c1sc(Cl)c(Cl)c1Br)C(=O)OCC [1.0775]
LogP (method marked [a]): 4.30^[a]

CCSC(=O)C1(NC(=O)c2sc(Cl)c(Cl)c2C)CC1 [1.0251]
LogP (method [a]): 4.08^[a]

COC(=O)C1(NC(=O)c2sc(Br)c(Br)c2F)CC(C)(C)C1 [1.0621]
LogP (method [a]): 4.12^[a]

Cc1c(C(=O)NCC(=O)OC2CCOC2)sc(C#N)c1Br (stereo not shown) [1.0679]
LogP (method marked [a]): 2.12^[a]

CC(C)OC(=O)C(NC(=O)c1sc(Br)c(Br)c1F)C1CC1 (racemic) [1.0923]
LogP (method [a]): 4.40^[a]

CCOC(=O)C(NC(=O)c1sc(Br)c(Br)c1Cl)C1CC1 (stereo not shown) [1.0991]
LogP [4]: 4.34^[a]

CCOC(=O)[C@H](CO)NC(=O)c1sc(Cl)c(Cl)c1C#N [1.0830]
LogP (method [a]): 2.22^[a]

CC(C)OC(=O)C1(NC(=O)c2sc(Br)c(Br)c2F)CCC1 [1.0620]
LogP (method [a]): 4.23^[a]

COC(=O)C(CC(F)F)NC(=O)c1sc(Cl)c(Br)c1C (stereo not shown) [1.0068]
LogP [3]: 3.33^[a]

Cc1c(C(=O)O)sc(Cl)c1C#N [II.008]
LogP [2]: 1.94^[a]

O=C(O)CNC(=O)c1cc(I)c(I)s1 [1.0471]
LogP [1]: 1.87^[a]

CCOC(=O)C1(NC(=O)c2sc(C#N)c(Br)c2Br)CC1 [1.0740]
LogP (method marked [a]): 3.02^[a]

CNC(=S)SC[C@H](NC(=O)c1sc(Cl)c(Cl)c1Br)C(=O)OC [1.0531]
LogP (method [a]): 3.56^[a]

CCOC(=O)C1(NC(=O)c2sc(Cl)c(Cl)c2Br)CSC1 [1.0727]
LogP (method marked [a]): 3.95^[a]

CCOC(=O)C1(NC(=O)c2sc(Cl)c(Br)c2Br)CC1 [1.0210]
LogP (method [a]): 3.48^[a]

CCOC(=O)C(NC(=O)c1sc(Br)c(Br)c1F)C1CC1 (stereo not shown) [1.0495]
LogP [1]: 3.98^[a]

O=C1CC(NC(=O)c2cc(Cl)c(Br)s2)CN1 (stereo not shown) [I.0221]
LogP [2]: 1.71^[a]

O=C(O)c1sc(Br)c(C(F)F)c1Br [II.078]
LogP [2]: 2.26^[a]

COC(=O)C(CC(F)F)NC(=O)c1sc(Br)c(Cl)c1F (stereo not shown) [1.0430]
LogP [1]: 3.21^[a]

CSCCC(NC(=O)c1sc(Br)c(Br)c1F)C(=O)O (stereo not shown) [1.0473]
LogP [1]: 2.75^[a]

CCOC(=O)C(Cc1ccccc1)NC(=O)c1sc(C(F)F)c(Br)c1Br (stereo not shown) [1.0516]
LogP [1]: 4.48^[a]

— patent US12642270B2, “Substituted thiophene carboxamides, thiophene carboxylic acids and derivatives thereof” (Bayer Aktiengesellschaft, priority 2019, dated 2026)
